Entries after “also recorded” stand apart in the source; their conditions may differ. Like-named read-outs stand apart in the source and are kept apart here. Residues, ends and D or L forms follow the SMILES beside them.
What was measured:
[1] = Nucleotide hydrolysis activity; type: biochemical
Excerpt: In addition, the ability of small peptides such as EAK16 to self-assemble into membranes may be useful in origin of life studies related to cell membranes and cellular compartmentalization. […] This activity is probably due to the ability of lysine and glutamic acid side-chains to perform general acid and base catalysis.

PC12 cells = assay: In vitro neurite outgrowth on peptide membranes; type: cell-based, rat
Protocol: The suitability of these materials for supporting in vitro neurite outgrowth was tested by treating biomaterial-attached PC12 cells with nerve growth factor (NGF). This treatment induces PC12 cells to differentiate into sympathetic neurons which can send out long processes called neurites. There was a marked difference in the neurite promoting properties of the two materials tested (EAK16 and RAD16).
Nerve growth factor differentiated PC12 cells have been used extensively in studies of neurite outgrowth. PC12 cells upregulate the number of calcium-dependent and -independent cell adhesion receptors in response to nerve growth factor. Cell attachment and neurite outgrowth from nerve growth factor differentiated PC12 cells was examined on membranes of RAD16 and EAK16 in order to determine whether membranes containing RGD-like sequences would preferentially support these cell activities. Neurite outgrowth on peptide membranes is of interest for potential applications of nerve repair.
Untreated PC12 cells were introduced to peptide membranes of EAK16 and RAD16 suspended in 85% RMMP1, 10% heat inactivated horse serum, 5 fetal bovine serum. Half of the cells were treated with nerve growth factor (50 ng/ml, NGF) and were supplemented with NGF every 3-4 days for 14 days. […] The neurite outgrowth reached greater than 400 μm in length, approximately 15-20 times the cell body, following the contour of the matrices in a three dimensional network.

PC12NGF = assay: Cell attachment to biopolymer sheets, normal or Ca++ and Mg++ free medium (Table 6); type: cell-based, rat; parameters: key: ++++: strong attachment; +++: moderate attachment; ++: weak attachment; +/−: little or no attachment
Protocol: Cells were pretreated in serum-free medium containing 30 μg/ml cyclohexamide for 2 hours before introduction to the peptide membranes. The cells used for the calcium and magnesium-free condition were pre-equilibrated in Ca^++ and Mg^++ free medium containing 5 mM EDTA for 15 minutes before introduction to the peptide membranes. Cells were allowed to attach to the peptide membranes for 30 minutes, 1 and 8 hours at 37° C. The attached cells were shaken for […] on a rotary rocker at 60 r.p.m., then scored under phase contrast microscopy.

[2] = test system: nerve growth factor-differentiated rat PC12 cells; type: cell-based
Excerpt: The membranes also appear to be non-cytotoxic. The EAK16 peptide formed macroscopic membranes when added to a tissue culture of nerve growth factor-differentiated rat PC12 cells.

[3] = type: physicochemical; settings: for [θ2] λ2 195 nm / −[θ1] λ1 218 nm: 8 μM in water
Protocol: Circular dichroism (CD) spectra were taken on an Aviv Model 60DS spectropolarimeter using program 60HDS for data processing. Because EAK16 contains both positively and negatively charged residues, the peptide itself can serve as a buffer. CD samples were prepared and measured at 25° C., unless otherwise indicated. All reagents were ultrapure and solutions were filtered through a […] before use. Circular dichroism (CD) spectroscopy was used to monitor the stability of the β-sheet structure of EAK16 under various conditions. Dilute […] concentrations. […] A 3 mM stock EAK16 solution was mixed in water to a concentration of 20 μM, allowed to equilibrate, and the CD spectrum measured. The solution was then diluted five times by two-fold serial dilutions to final concentrations of […], 10, 5.0, 2.5, 1.25 and 0.625 μM, allowed to equilibrate and CD spectra taken. […] Temperature. The CD spectra of 8 μM EAK16 at 25, 37, 55, 70 and 90° C. in water were measured. […] EAK16 has a calculated pI Of 6.71. It was assumed that changes of pH would have a great effect on the β-sheet structure, especially when the charged groups are neutralized. […] The 3 mM stock solution of EAK16 was mixed with pH buffers at pH 1.5, 3, 7, and 11 to a final concentration of 10 μM and allowed to equilibrate for 4 hours before taking CD measurements. […] Chemical denaturants. […] The peptide (3 mM stock) was mixed with water or different concentrations of guanidine-HCl or urea and allowed to incubate overnight before taking CD measurements. SDS was added to a peptide solution to a final concentration of 0.1% and incubated for 30 minutes.

[4] = test system: NGF differentiated PC12 cells, retonic acid-differentiated human neuroblastoma and mouse cerebellum granule cells; assay: Neurite outgrowth on biopolymers, several neuronal cell types; type: cell-based
Excerpt: The invention further relates to the regeneration of nerves with filaments of the membranes of the present invention. Nerve regeneration can be promoted and directed by transplanting filaments of RAD16 along the correct path to their targets. This would be extremely useful for patients with severed peripheral nerves. Such a technology could be refined to help people with spinal cord injuries.

3T3 fibroblast cells = assay: Cell attachment to biopolymer sheets, with serum or serum-free + cyclohexamide (Table 5); type: cell-based, mouse; parameters: key: ++++: strong attachment; +++: moderate attachment; ++: weak attachment; +/−: little or no attachment
Protocol: 3T3 fibroblast cells were introduced to membranes of RAD16 and EAK16 in normal serum-containing medium or in serum-free medium containing 30 μg/ml cyclohexamide (cells used for this condition were pretreated in this medium for 2 hours before plating). Cells were allowed to attach to the membranes for 30 minutes, 1 and 8 hours at 37° C. The attached cells were shaken for 10 minutes on a rotary rocker at 60 r.p.m., then scored under phase contrast microscopy. The decrease in cells attached to the membrane in the serum-free condition reflects cell loss due to serum deprivation.

CC(=O)N[C@@H](C)C(=O)N[C@@H](CCC(=O)O)C(=O)N[C@@H](C)C(=O)N[C@@H](CCC(=O)O)C(=O)N[C@@H](C)C(=O)N[C@@H](CCCCN)C(=O)N[C@@H](C)C(=O)N[C@@H](CCCCN)C(=O)N[C@@H](C)C(=O)N[C@@H](CCC(=O)O)C(=O)N[C@@H](C)C(=O)N[C@@H](CCC(=O)O)C(=O)N[C@@H](C)C(=O)N[C@@H](CCCCN)C(=O)N[C@@H](C)C(=O)N[C@@H](CCCCN)C(N)=O [EAK16] (Ac-AEAEAKAKAEAEAKAK-NH2)
nucleotide hydrolysis activity [1]: partial nucleotide hydrolysis activity | neurite outgrowth of NGF-treated PC12 cells, in words (PC12 cells; NGF-treated PC12 cells on membranes): little neurite processes; also recorded: little neurite outgrowth | Neurite outgrowth, untreated, 14 days (PC12 cells; PC12 cells without NGF, 14 days): − (no neurite outgrowth) | cell attachment (PC12NGF; 30 min, Ca^++ & Mg^++ free, EDTA serum-free + Cyclohex): ++++ | cell attachment (PC12NGF; 30 min, Normal Ca^++ & Mg^++ serum-free + Cyclohex): ++++ | cell attachment (PC12NGF; 60 min, Ca^++ & Mg^++ free, EDTA serum-free + Cyclohex): ++++ | cell attachment (PC12NGF; 60 min, Normal Ca^++ & Mg^++ serum-free + Cyclohex): ++++ | effect on appearance or rate of growth of the cells [2]: did not affect the appearance or rate of growth of the cells | β-sheet structure on dilution of the peptide ([3]; 0.625 to 20 μM in water): not significantly affected by dilution of the peptide | CD spectra over temperature ([3]; 25, 37, 55, 70 and 90° C.): unaffected over the range of 25-90 °C | Ratio [θ2]/[θ1] ([3]; 25 ° C.): 3.9 | [θ2] λ2 195 nm ([3]; 25 ° C.): 62 X1,000 | −[θ1] λ1 218 nm ([3]; 25 ° C.): 16 X1,000 | Ratio [θ2]/[θ1] ([3]; 37 ° C.): 4.0 | [θ2] λ2 195 nm ([3]; 37 ° C.): 60 X1,000 | −[θ1] λ1 218 nm ([3]; 37 ° C.): 15 X1,000 | Ratio [θ2]/[θ1] ([3]; 55 ° C.): 3.9 | [θ2] λ2 195 nm ([3]; 55 ° C.): 55 X1,000 | −[θ1] λ1 218 nm ([3]; 55 ° C.): 14 X1,000 | Ratio [θ2]/[θ1] ([3]; 70 ° C.): 4.1 | [θ2] λ2 195 nm ([3]; 70 ° C.): 54 X1,000 | −[θ1] λ1 218 nm ([3]; 70 ° C.): 13 X1,000 | Ratio [θ2]/[θ1] ([3]; 90 ° C.): 4.0 | [θ2] λ2 195 nm ([3]; 90 ° C.): 50 X1,000 | −[θ1] λ1 218 nm ([3]; 90 ° C.): 12.5 X1,000 | β-sheet structure in chemical denaturants (CD spectra) ([3]; SDS at 90° C., 1-7 M guanidine-HCl or 8 M urea at room temperature for over 16 hours): not significantly affected | decrease of mean residue ellipticity (−[θ]218 nm), thermal profile ([3]; over 25-90° C.): 22% | ratios of ellipticity at 194 nm/217 nm ([3]; over the temperature range of 25-90° C.): approximately 4.0 | decrease of ellipticity (−[θ]218 nm), pH profile ([3]; pH 1.5 to 3, 7 and 11): less than 10% | neurite outgrowth on biopolymers [4]: not on EAK16-based biopolymers | cell attachment (3T3 fibroblast cells; 3T3, 30 min, medium with serum, no cyclohexamide): ++++ | cell attachment (3T3 fibroblast cells; 3T3, 30 min, serum-free medium, + cyclohexamide): ++++ | cell attachment (3T3 fibroblast cells; 3T3, 60 min, medium with serum, no cyclohexamide): ++++ | cell attachment (3T3 fibroblast cells; 3T3, 60 min, serum-free medium, + cyclohexamide): ++++ | cell attachment (3T3 fibroblast cells; 3T3, 8 hrs, medium with serum, no cyclohexamide): ++++ | cell attachment (3T3 fibroblast cells; 3T3, 8 hrs, serum-free medium, + cyclohexamide): ++
